Like-named read-outs stand apart in the source and are kept apart here.
B1: macrophage inhibitory protein-1 [MIP-1β] (protein, UniProt P13236 24-92, looked up)
C-C motif chemokine 4: APMGSDPPTACCFSYTARKLPRNFVVDYYETSSLCSQPAVVFQTKRSKQVCADPSESWVQEYVYDLELN
notes: C--C chemokine, obtained from R&D

How the values were obtained:
MCP-1RB receptor [1] = assay type: cell-based, human; conditions: for IC50: Table I, read-out: Inhibition of Adenylyl Cyclase IC50 (nM) MCP-1RB; for activation of the MCP-1 receptor in the adenylyl cyclase assay: high concentrations
Description: (§1) To investigate inhibition of adenylyl cyclase activity, HEK-293 cells stably-transfected with the MCP-1RB receptor and the MIP-1α/RANTES receptor were grown until confluent in 24-well tissue culture dishes and labeled overnight with 2 μCi/ml of [^3 H]adenine (25-30 Ci/mmol) (New England Nuclear, Boston, Mass.) in MEM-EBSS supplemented with 10% FCS. The next day, the cells were washed by incubation at room temperature with 0.5 ml of serum-free MEM-EBSS media supplemented with 10 mM HEPES, 1 mg/ml BSA, and 1 mM IBMX (3-isobutyl-1-methylxanthine) for 5 min. […] The incubation was terminated by replacement of the media with 1 ml of ice-cold 5% TCA (trichloroacetic acid), 1 mM cAMP, and 1 mM ATP (Sigma). Following incubation at 4° C. for 30 min, the labeled [^3 H]ATP and [3H]cAMP pools were separated and quantitated by chromatography on Dowex 50W (200-400 mesh, hydrogen form, from Sigma) and neutral alumina columns (also from Sigma), as described in Hung, J. Biol. Chem. 267:20831-34 (1992) and Wong, Nature 351: 63-65 (1991). The 1 ml acid supernatant was loaded onto a 1-ml Dowex 50W column and the ATP pool eluted with 3 ml of H2 O. The Dowex 50W columns were then placed over 1-ml alumina columns, and 10 ml of H2 O was added to the Dowex resin and the eluant allowed to drop directly onto the neutral alumina. The cAMP pool was then eluted directly from the alumina with 5 ml of 0.1M imidazole/0.01mM sodium azide. The [^3 H]ATP and [^3 H]cAMP fractions were counted by liquid scintillation spectroscopy. The cAMP pool for each sample was normalized to its own ATP pool and expressed as a ratio by the equation (cAMP cpms/ATP cpms)×100. In each experiment full dose-response curves were generated and expressed as a percent of the forskolin control.
(§2) Inhibition of MCP-1RB receptor activation by bordetella pertussis toxin was investigated. Pertussis toxin (List Biological Labs, Inc., Campbell, Calif.) was dissolved in 0.01M sodium phosphate, pH 7.0, 0.05M sodium chloride and diluted into normal serum containing media at final concentrations of 0.1 ng/ml to 100 ng/ml, and incubated with cells overnight (14-16 h) at 37° C. The conditions of the Pertussis toxin treatment of the 293 cells were identical for calcium fluorimetric and adenylyl cyclase experiments. In the adenylyl cyclase experiments, the Pertussis toxin was added at the same time as [^3 H]adenine.
(§3) Dose response curves generated in the calcium fluorimetric and adenylyl cyclase inhibition assays were fit by a nonlinear least squares program to the logistic equation:
(§4) Effect=max effect/[1+(EC50 /(agonist)^n)]
(§5) where n and EC50 represent the Hill coefficient and the agonist concentration that elicited a half-maximal response, respectively, and were derived from the fitted curve. Curve fitting was done with the computer program "Prism" (by Graph Pad, San Diego, Calif.). Results represent the mean ±SE. The 95% confidence intervals (CI) of the EC50 and IC50 values, when given, were calculated from the log EC50 and IC50 values, respectively.

MIP-1α/RANTES receptor = assay: Inhibition of adenylyl cyclase (cAMP accumulation) in HEK-293 cells stably transfected with MIP-1α/RANTES receptor; assay type: cell-based; conditions: for activation of the MIP-1α/RANTES receptor: at up to 1 μM
Description: as §1
In similar experiments the MIP-1α/RANTES receptor was stably transfected into 293 cells and also found to mediate potent and dose-dependent inhibition of adenylyl cyclase activity. Unlike the MCP-1RB receptor, however, the MIP-1α/RANTES receptor was activated by multiple chemokines with varying degrees of potency.
as §3, §4, §5

MCP-1RB receptor [2] = assay: Intracellular calcium mobilization (indo-1) in stably transfected MCP-1RB/293 cells; assay type: cell-based, human; conditions: for block of stimulation of the cells by MCP-1 / stimulation of calcium signals: MCP-1RB/293 cells; for stimulation of calcium signals: high concentrations
Description: Calcium mobilization in 293 cells was then investigated. Transfected HEK-293 cells were grown until confluent, trypsinized briefly, washed with phosphate buffered saline containing 1 mg/ml BSA (PBS-BSA), and resuspended in serum-free MEM-EBSS supplemented with 1 mg/ml BSA and 10 mM HEPES (pH 7.0) at a density of 2×10^7 cells/ml. The cells were incubated in the dark at 37° C. for 20 min in the presence of 5-10 μg/ml indo-1 AM (Molecular Probes, Inc., Eugene, Oreg.). Nine volumes of PGS-BSA were added, and the cells were incubated for an additional 10 min at 37° C., pelleted by centrifugation, and washed twice with 50 ml of the PBS-BSA solution. Washed, indo-1-loaded cells were then resuspended in Hank's Balanced Salt Solution (1.3 mM Ca^2+) supplemented with 1 mg/ml BSA (HBS-BSA) at a density of approximately 0.5×10^6 cells/ml at room temperature. To measure intracellular calcium ([Ca^2+ ]i), 0.5 ml of the cell suspension was placed in a quartz cuvette in a Hitachi F-2000 fluorescence spectrophotometer. […] Intracellular calcium was measured by excitation at 350 nm and fluorescence emission detection at 490 nm (F1) and 410 nm (F2) wavelengths. The [Ca^2+ ]i was estimated by comparing the 490/410 fluorescence ratio after agonist application (R) to that of calibration ratios measured at the end of each run, according to the equation:
[Ca^2+ ]i =Kd ×[(R--Rmin)/(Rmax
where Rmax and Rmin represent the fluorescence ratio under saturating (1.3 mM Ca^2+) and nominally free (10 mM EGTA, Sigma Chemical Co.) calcium conditions, Kd is the dissociation constant of calcium for indo-1, R is the fluorescence ratio, and Sf2/Sb2 is the fluorescence ratio of free and bound indo-1 dye at 410 nm. See Thomas, AP and Delaville, F (1991) in Cellular Calcium, a Practical Approach, Oxford Univ. Press, pp. 1-54.
To quantirate calcium responses, MCP-1 dose response curves were generated in each experiment and the results were expressed as a percent of the maximum calcium signal (at 300 nM MCP-1) measured in that experiment. The changes in [Ca^2+ ]i levels in response to each concentration of agonist were determined by subtracting the baseline from peak [Ca^2+ ]i levels, which were determined by averaging 5 seconds of data prior to agonist addition and surrounding the peak response, respectively. In experiments done to determine the role of extracellular calcium, 3 mM EGTA was added 60-90 seconds prior to MCP-1. […] All experiments were performed at room temperature.
as §2, §3, §4, §5

MCP-1RA = assay: Ca45 efflux assay in Xenopus oocytes injected with MCP-1RA cRNA; assay type: cell-based, human; conditions: ligand at 500 nM
Description: (§6) The calcium efflux assay was performed to confirm expression of functional MCP-1R protein and to determine whether the MCP-1 receptors A and B conferred responsiveness to MCP-1 or other chemokines. In this assay, MCP-1RA and 1RB cRNA was microinjected into Xenopus oocytes and receptor signaling activities measured by detection of agohist-induced calcium mobilization.
(§7) As described in Vu, Cell 64:1057-68(1991), cRNA was prepared by SP6 RNA polymerase transcription from a NotI linearized vector and run on an agarose gel to confirm a single band of the expected size. One day after harvesting, oocytes were injected with 20 ng of cRNA in a total volume of 50 nl per oocyte. After incubation in modified Barth's buffer for 2 days at 16° C., the oocytes were loaded with Ca^45 (50 uCi/ml, Amersham, Arlington Heights, Va.) for 3 hours, washed for one hour, and placed into wells of a 24-well dish in groups of seven, in a volume of 0.5 ml Ca^45 efflux was determined by collecting the media at 10 minute intervals and counting beta emissions in a liquid scintillation counter. […] Uninjected oocytes were used as controls.

MCP-1RB receptor [3] = assay: Equilibrium binding of 125I-MCP-1 to MCP-1RB expressing HEK-293 cells; design: species or system human; conditions: unlabeled chemokine, 500 pM 125I-labeled MCP-1
Description: Equilibrium binding assays were then performed using the method of Ernst, J. Immunol. 152:3541-49 (1994). […] Competition experiments were performed using 500 pM ^125 I-labeled MCP-1 and the concentrations of unlabeled chemokines as indicated in FIG. 7A-B.
Equilibrium binding data were analyzed according to the method of Scatchard using the program "LIGAND" (Biosoft, Ferguson, Mo.) on a Macintosh computer. See Munson, Anal. Biochem. 107: 220-39 (1980).

MCP-1RB = assay: Ca45 efflux assay in Xenopus oocytes injected with MCP-1RB cRNA; assay type: cell-based, human; conditions: ligand at 500 nM
Description: as §6, §7

MM6 cells = assay: MCP-1 induced calcium flux in MM6 cells (calcium efflux assay); assay type: cell-based, human; conditions: label = chemokine given first, MCP-1 versus RANTES (or MIP-1α)
Description: Because monocytes are difficult to isolate in usable quantity and express less than 2000 high affinity MCP-1 binding sites per cell, a cultured cell line that responded well to MCP-1 had to be identified. Using the calcium effiux assay as described in Vu, Cell 64:1057-68(1991), MCP-1 induced calcium fluxes in various cell lines were measured. […] In contrast, a dose-dependent calcium flux was detected in MM6 cells, with half maximal stimulation at 4nM MCP-1.

[4] = MIP-1α/RANTES receptor, read-out: IC50 for inhibition of adenylyl cyclase
[5] = pretreatment overnight, 0.1 to 100 ng/ml

Row | Molecule | block of stimulation of the cells by MCP-1 (MCP-1RB receptor [2]) | stimulation of calcium signals (MCP-1RB receptor [2]) | IC50 (MCP-1RB receptor [1]) | activation of the MCP-1 receptor in the adenylyl cyclase assay (MCP-1RB receptor [1]) | calcium efflux response elicited (MCP-1RA) | competition for 125I-MCP-1 binding (MCP-1RB receptor [3]) | calcium efflux response elicited (MCP-1RB) | also measured
1 | C=C[C@@]1(C)CC(=O)[C@]2(O)[C@@]3(C)[C@@H](O)CCC(C)(C)[C@@H]3[C@H](O)[C@H](OC(C)=O)[C@@]2(C)O1 [Forskolin, forskolin, reference compound] | – | – | – | – | – | – | – | increase of cAMP levels (MCP-1RB receptor [1]; hek-293 cells, 20 min, 10 µM): 16 fold
2 | Gro-α: C-X-C chemokine | failed to block | failed to stimulate significant calcium signals | > 1000 nM | Virtually no activation | – | – | – | IC50 (MIP-1α/RANTES receptor; Table I, read-out: Inhibition of Adenylyl Cyclase IC50 (nM) MIP-1α/RANTES R): > 1000 nM; activation of the MIP-1α/RANTES receptor (MIP-1α/RANTES receptor): did not activate
3 | RANTES: C--C chemokine, obtained from R&D | failed to block | failed to stimulate significant calcium signals | > 1000 nM | Virtually no activation | no response | did not compete for binding | No response | IC50 (MIP-1α/RANTES receptor; [4]): ~0.1 nM; effect of prior exposure to the chemokine on the calcium response to the other chemokine (MM6 cells): could not be ablated
4 | interleukin-8 [IL-8] | failed to block | failed to stimulate significant calcium signals | – | Virtually no activation | No response | – | No response | activation of the MIP-1α/RANTES receptor (MIP-1α/RANTES receptor): did not activate; calcium efflux response elicited (MCP-1RA; listed as Il-8): no response
5 | macrophage inhibitory protein-1 [MIP-1α] | failed to block | failed to stimulate significant calcium signals | > 1000 nM | Virtually no activation | no response | did not compete for binding | No response | IC50 (MIP-1α/RANTES receptor; [4]): ~0.1 nM
6 | pertussis toxin [reference compound] | – | – | – | – | – | – | – | component resistant to inhibition (MCP-1RB receptor [2]; calcium mobilization, up to 100 ng/ml of PT): ≈ 20%; block of MCP-1-induced mobilization of intracellular calcium (MCP-1RB receptor [2]; [5]): substantially blocked; component resistant to inhibition (MCP-1RB receptor [1]; adenylyl cyclase inhibition, up to 100 ng/ml of PT): ≈ 20%; shift of the MCP-1 IC50 for cAMP accumulation (MCP-1RB receptor [1]; pertussis toxin treatment): without significantly shifting; block of MCP-1 inhibition of adenylyl cyclase (MCP-1RB receptor [1]; [5]): substantially blocked
7 | B1 | failed to block | failed to stimulate significant calcium signals | > 1000 nM | Virtually no activation | no response | did not compete for binding | No response | –
